One data set relates to stomach. The experiment in a line: Histopathological examination of stomach. Type of data set: in vivo, rats. The settings on record: rats, H&E stain. How it is done:
In brief, the stomachs of each animal group’s rat were fixed in 10% neutral buffered formalin for 48 h. The sections were then dehydrated, cleared, fixed in paraffin, sectioned ([…]), and stained with H&E stain.

Data set [1] deals with heart function biomarkers (LDH, CK-MB, and troponin). The experiment in a line: Cardiac function biomarkers in rat serum. Type of data set: in vivo, rats. The settings on record: 50 mg/kg/day p.o. for 2 weeks, mean ± SEM. How it is done:
(§1) Eighteen rats were divided into three groups at random (6 animals in each group). The first group was given a vehicle and served as normal control. […] Ketamine (100 mg/kg) was used to anaesthetise the animals on the 15th day. Blood samples were obtained from the retro orbital, allowed to clot, centrifuged at 1000 g for 15 min, and utilised to examine heart function biomarkers (LDH, CK-MB, and troponin). The abdomen of each rat was opened, and the heart was extracted and washed in ice-cold physiological saline before being harnessed for histological investigation.

In a further data set the test system is heart. Briefly: Histopathological examination of the heart. The settings on record: rats, two weeks administration, H&E stain. Type of data set: in vivo. On the procedure:
as §1

Data set [2] in a line: Dissolution of DPPH samples in DMSO/methanol. Particulars: DPPH sample preparation, methanol: DMSO 9:1 v/v. Type of data set: physicochemical. How it is done:
Preparation of samples was occurred at the following concentrations: Samples 3a, 4a, 5b, 5d and 5e at final concentrations of 0.5 mg/ml in methanol: DMSO 9:1 v/v. Samples 4b and 4d at final concentrations 0.025 mg/ml in methanol: DMSO 9:1 v/v, sample 5a at final concentrations 0.25 mg/ml in methanol: DMSO 9:1 v/v, Sample 4c, 5c and 4e at final concentrations 0.05 mg/ml in methanol: DMSO 9:1 v/v, sample 3b at final concentration 0.75 mg/ml methanol: DMSO 9:1 v/v. A stock solution of 100 µM concentration of Trolox, a standard used in this experiment, was prepared in methanol from which seven concentrations were prepared, including 50, 40, 30, 20, 15, 10 and 5 µM.
(The DPPH test is a chemical assay of radical scavenging.)

Another data set deals with T1, COX-2 (Ovis aries, UniProt P79208).
T1 sequence (P79208 17-603): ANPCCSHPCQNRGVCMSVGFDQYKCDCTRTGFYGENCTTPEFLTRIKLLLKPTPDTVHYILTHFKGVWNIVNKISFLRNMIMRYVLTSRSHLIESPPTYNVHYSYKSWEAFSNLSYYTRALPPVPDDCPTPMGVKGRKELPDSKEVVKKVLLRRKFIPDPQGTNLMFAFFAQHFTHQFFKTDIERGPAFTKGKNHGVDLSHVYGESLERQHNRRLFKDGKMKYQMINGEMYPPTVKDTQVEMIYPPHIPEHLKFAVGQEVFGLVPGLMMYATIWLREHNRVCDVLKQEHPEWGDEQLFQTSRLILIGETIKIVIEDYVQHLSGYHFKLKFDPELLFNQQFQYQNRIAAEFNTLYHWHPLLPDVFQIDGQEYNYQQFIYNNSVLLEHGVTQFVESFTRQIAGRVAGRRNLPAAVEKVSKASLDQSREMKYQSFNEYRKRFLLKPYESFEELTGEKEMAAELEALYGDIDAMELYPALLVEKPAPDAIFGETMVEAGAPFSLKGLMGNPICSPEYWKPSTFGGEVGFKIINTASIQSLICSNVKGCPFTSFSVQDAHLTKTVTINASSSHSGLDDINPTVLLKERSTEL
The experiment in a line: COX-2 inhibition, enzyme immune assay (EIA) kit. Type of data set: biochemical, ovine. Particulars: for S.I (IC50 COX-1/IC50 COX-2): COX-2 selectivity index; for SI: lab report, COX1/COX2.

A short description of a further data set: DPPH free radical assay. It is filed as biochemical. The settings on record: 540 nm, 30 min, relative to Trolox.
The test system of data set [3] is Salmonella enterica (ATCC 14028). The experiment in a line: Disc diffusion antimicrobial screening, Salmonella enterica. Type of data set: cell-based. The settings on record: 100 µg/disc. How it is done:
All compounds were screened for their antimicrobial activity at the Microbiology and Immunology Department, Faculty of Pharmacy, Beni-Suef University. The antimicrobial activity screening was carried out using the disc diffusion method, as described earlier, with some adjustments.
For each indicator microbe, a solution of half McFarland turbidity was prepared in sterile saline, followed by surface streaking of the strains on Mueller-Hinton agar with a sterile cotton swab. Then, sterile filter paper discs (5 mm diameter) preloaded with 100 µg of each compound were applied to the surface of the pre-inoculated plates. Then, the plates were chilled at 4 °C for 100 min before being incubated overnight at the proper temperature for microbial growth. Finally, the diameter of the inhibition zones around each disc was measured to evaluate the antimicrobial activity of the compounds. Ciprofloxacin was used as a standard antibacterial agent at a concentration of 20 µg/disc. Furthermore, DMSO-loaded discs were used as a negative control.
A general note: In agar diffusion tests the substance spreads into inoculated agar from a disc or well.

By melting point is commonly meant the temperature, or range, at which the solid turns liquid.

Structures are written as SMILES. “And” between values parts separate entries of the source, which are not always exact repeats. Identical values can stand only once. Marks after values point to notes of the source that are not given here.

`Cc1ccc(N2C(=O)CSC2=NN=Cc2cn(S(C)(=O)=O)c3ccccc23)cc1` [Compound 5d] returned a melting point of 271 to 273 °C. The stomach histopathology finding entry in the data set with stomach is “minimally disrupted mucous layer”. In data set [1], the CK-MB is reported as 0.315 ± 0.035^a,b ng/ml, the LDH is on record as 536 ± 28^a,b U/L and the “Troponin I” value was 0.0015 ± 0.0005^b ng/ml. Further, in the data set with heart, the heart histopathology finding entry was “little or no toxic effects on the heart”. Besides, the “solubility of sample in DMSO and methanol” value in data set [2] is recorded as “didn’t dissolve in DMSO nor in methanol”. Moreover, on COX-2, the “S.I (IC50 COX-1/IC50 COX-2)” value is 8.59 and 8.60; the SI was found to be 8.596.

In the case of `COc1ccc(NC(=S)N/N=C/c2cn(S(C)(=O)=O)c3ccccc23)cc1` [Compound 4e, (E)-N-(4-Methoxyphenyl)-2{[1-(methylsulfonyl)-1H-indol 3yl]methylene}hydrazinecarbothioamide], the melting point was in the range of 214 to 216 °C. In “DPPH free radical assay”, the “DPPH test results (µM trolox equivalent/ 1mg sample ± SD)” value is reported as 161.21 ± 7.98 µM trolox equivalent/ 1mg sample. In addition, in the data set with stomach, the stomach histopathology finding entry is given as “partial loss of mucous layer with mild superficial erosions”. Moreover, at COX-2, the “S.I (IC50 COX-1/IC50 COX-2)” value is listed as 30.17 and the SI came to 30.17. For the same molecule, the “antibacterial activity against Salmonella enterica” value in data set [3] is listed as “selective antibacterial activity”.

Values taken from PMC9721424, “Novel N-methylsulfonyl-indole derivatives: biological activity and COX-2/5-LOX inhibitory effect with improved gastro protective profile and reduced cardio vascular risks” (Journal of Enzyme Inhibition and Medicinal Chemistry, 2022).
